Data reported in PubChem BioAssay AID248 (DTP/NCI, 2004).
Where “and” joins values, the source holds several entries; their conditions need not be identical. Equal entries are not always repeated. Inconclusive results and toxic doses are left out. Cut-off read from the data, not from the text of the source: active = T/C of 150% or more; inactive = T/C below 125%.

Test system: L1210 leukemia ip in BDF1 mice, survival T/C
Experiment: NCI In Vivo Anticancer Drug Screen. Data for tumor model L1210 Leukemia (intraperitoneal) in B6D2F1 (BDF1) mice
Details: endpoint: mean survival time, higher = longer survival
Summary of the method: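 Each compound was tested against a transplantable tumor grown in mice. The endpoint was survival, with treated animals benchmarked against vehicle controls as a simple ratio.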

[1] = dose: 100.0 mg/kg/injection, schedule: Q01DX009 (ip), vehicle: Klucel (hydroxypropylcellulose) (HPC)
[2] = dose: 100.0 mg/kg/injection, schedule: Q04DX003 (ip), vehicle: Klucel (hydroxypropylcellulose) (HPC)
[3] = dose: 200.0 mg/kg/injection, schedule: Q01DX009 (ip), vehicle: Klucel (hydroxypropylcellulose) (HPC)
[4] = dose: 200.0 mg/kg/injection, schedule: Q04DX003 (ip), vehicle: Klucel (hydroxypropylcellulose) (HPC)
[5] = dose: 400.0 mg/kg/injection, schedule: Q01DX009 (ip), vehicle: Klucel (hydroxypropylcellulose) (HPC)
[6] = dose: 400.0 mg/kg/injection, schedule: Q04DX003 (ip), vehicle: Klucel (hydroxypropylcellulose) (HPC)
[7] = dose: 100.0 mg/kg/injection, schedule: Q04DX002 (ip), vehicle: Klucel (hydroxypropylcellulose) (HPC)
[8] = dose: 50.0 mg/kg/injection, schedule: Q01DX009 (ip), vehicle: saline
[9] = dose: 100.0 mg/kg/injection, schedule: Q01DX009 (ip), vehicle: saline
[10] = dose: 200.0 mg/kg/injection, schedule: Q01DX009 (ip), vehicle: saline

Measured: T/C

Cc1ccc(C2OC2(C(=O)c2ccccc2)c2ccccc2)cc1 (stereo not drawn)
inactive: [1] 106 % of control | [2] 96 % of control | [3] 108 % of control | [4] 104 % of control | [5] 92 % of control | [6] 98 % of control

CCN(CC)C(=O)/C=C/c1ccccc1
inactive: dose: 50.0 mg/kg/injection, schedule: Q01DX001 (ip), vehicle: saline 102 % of control | dose: 100.0 mg/kg/injection, schedule: Q01DX001 (ip), vehicle: saline 96 % of control | dose: 200.0 mg/kg/injection, schedule: Q01DX001 (ip), vehicle: saline 96 % of control

CCC(C)N=C(N)C(N)=NC(C)CC (stereo not drawn)
inactive: dose: 100.0 mg/kg/injection, schedule: Q04DX002 (ip), vehicle: saline 103 % of control | dose: 200.0 mg/kg/injection, schedule: Q04DX002 (ip), vehicle: saline 103 % of control

O=C(NC(=S)Nc1cccc(Cl)c1)c1ccc(Cl)cc1Cl
inactive: dose: 100.0 mg/kg/injection, schedule: Q01DX001 (ip), vehicle: Klucel (hydroxypropylcellulose) (HPC) 87 % of control | [1] 87 % of control | [7] 115 % of control | [2] 97 % of control | [3] 97 % of control and 87 % of control | dose: 200.0 mg/kg/injection, schedule: Q04DX002 (ip), vehicle: Klucel (hydroxypropylcellulose) (HPC) 93 % of control | [4] 103 % of control | [5] 87 % of control and 92 % of control | dose: 400.0 mg/kg/injection, schedule: Q04DX002 (ip), vehicle: Klucel (hydroxypropylcellulose) (HPC) 94 % of control | [6] 108 % of control

CC(C)(C)OC(=O)N/N=C/c1ccc2c(c1)OCO2
inactive: [2] 95 % of control | [4] 97 % of control | [6] 97 % of control

CCCCCCCC[N+](C)(CCCCCCCC)CCCCCCCC
inactive: dose: 0.04 mg/kg/injection, schedule: Q01DX009 (ip), vehicle: saline 86 % of control | dose: 0.09 mg/kg/injection, schedule: Q01DX009 (ip), vehicle: saline 100 % of control | dose: 0.19 mg/kg/injection, schedule: Q01DX009 (ip), vehicle: saline 101 % of control | dose: 0.19 mg/kg/injection, schedule: Q04DX003 (ip), vehicle: acetone 112 % of control | dose: 0.28 mg/kg/injection, schedule: Q01DX009 (ip), vehicle: saline with Tween-80 114 % of control | dose: 0.39 mg/kg/injection, schedule: Q01DX001 (ip), vehicle: saline with Tween-80 105 % of control | dose: 0.43 mg/kg/injection, schedule: Q01DX009 (ip), vehicle: saline with Tween-80 116 % of control | dose: 0.5 mg/kg/injection, schedule: Q01DX015 (ip), vehicle: saline 97 % of control | dose: 0.64 mg/kg/injection, schedule: Q01DX009 (ip), vehicle: saline with Tween-80 118 % of control | dose: 0.78 mg/kg/injection, schedule: Q01DX001 (ip), vehicle: saline with Tween-80 90 % of control | dose: 1.0 mg/kg/injection, schedule: Q01DX015 (ip), vehicle: saline 95 % of control | dose: 1.56 mg/kg/injection, schedule: Q01DX001 (ip), vehicle: saline with Tween-80 114 % of control

NC(=S)Nc1c(Cl)cc(Cl)cc1Cl
inactive: dose: 25.0 mg/kg/injection, schedule: Q01DX009 (ip), vehicle: Klucel (hydroxypropylcellulose) (HPC) 94 % of control | dose: 50.0 mg/kg/injection, schedule: Q01DX009 (ip), vehicle: Klucel (hydroxypropylcellulose) (HPC) 108 % of control | [1] 94 % of control and 107 % of control

O=c1c(O)cccc2cc(O)c(O)c(O)c12
inactive: dose: 12.5 mg/kg/injection, schedule: Q01DX009 (ip), vehicle: saline 100 % of control | dose: 25.0 mg/kg/injection, schedule: Q01DX009 (ip), vehicle: saline 94 % of control and 97 % of control and 107 % of control | [8] 95 % of control and 101 % of control (2×) | [9] 101 % of control | [10] 94 % of control and 92 % of control

Nc1nc2c(c(-c3ccc(Cl)cc3)n1)CN(Cc1ccccc1)C2=O
inactive: [8] 98 % of control | [9] 104 % of control | dose: 100.0 mg/kg/injection, schedule: Q04DX003 (ip), vehicle: saline 101 % of control | [10] 106 % of control | dose: 200.0 mg/kg/injection, schedule: Q04DX003 (ip), vehicle: saline 100 % of control | dose: 400.0 mg/kg/injection, schedule: Q04DX003 (ip), vehicle: saline 89 % of control

COC1OC(COC(c2ccccc2)(c2ccccc2)c2ccccc2)C(OC(=S)SCc2ccccc2)C(OC)C1OC (stereo not drawn)
inactive: dose: 25.0 mg/kg/injection, schedule: Q04DX002 (ip), vehicle: Klucel (hydroxypropylcellulose) (HPC) 108 % of control | dose: 50.0 mg/kg/injection, schedule: Q04DX002 (ip), vehicle: Klucel (hydroxypropylcellulose) (HPC) 104 % of control | [7] 104 % of control
